Assay results published in EPA's ToxValDB 9.5 (doi:10.2903/j.efsa.2008.127r).
Converted amounts (≈) assume the structure as drawn.

What was measured:
Daphnia magna = settings: chronic/long-term; duration: 21 days; reproduction
Bibionidae = settings: chronic/long-term; duration: 27 days
Apis mellifera = settings: acute, mortality
Folsomia candida = settings: chronic/long-term; duration: 28 days

Compound `CCCCN(CC)c1c([N+](=O)[O-])cc(C(F)(F)F)cc1[N+](=O)[O-]` [Benfluralin] has an LC50 (Oncorhynchus mykiss; acute, duration: 96 hours, mortality) of 0.081 µg/mL (≈ 0.242 µM), an NOEC (Oncorhynchus mykiss; chronic/long-term, duration: 49 days, growth) of 0.0019 mg/L and an LC50 (Colinus virginianus; acute, oral, diet, mortality) of over 909 mg/kg-day. It also gave an LD50 (Colinus virginianus; acute, oral, mortality) of over 2000 mg/kg-day, an NOEC (Colinus virginianus; reproduction developmental) of 8.6 mg/kg-day and an NOEC (Anas platyrhynchos; reproductive) of 49.3 mg/kg-day. The LC50 (Anas platyrhynchos; short-term, oral, feed, mortality) was over 793 mg/kg-day, the LC50 (Tagia sp.; acute, duration: 14 days, mortality) was over 1000 mg/kg and the NOEC (Tagia sp.; chronic/long-term, duration: 8 weeks) was 30.8 mg/kg. For the same compound, the LD50 (Rattus norvegicus; acute, oral, mortality) was over 5000 mg/kg-day, the NOAEL (Rattus norvegicus; chronic, duration: 2 years, histopathology: nonneoplastic) was 0.5 mg/kg-day and the NOAEL (Rattus norvegicus; reproduction developmental, body weight) was 5.5 mg/kg-day. It also gave an NOAEL (Rattus norvegicus; subchronic, duration: 90 days, oral, histopathology: nonneoplastic) of 17 mg/kg-day, an NOEC (Daphnia magna) of 0.0155 mg/L and an NOEC (Bibionidae) of 0.231 mg/L. It also gave an LD50 (Apis mellifera; dermal) of over 100 µg/piece, an LD50 (Apis mellifera; oral, unspecified) of over 111 µg/piece and an NOEC (Folsomia candida) of 5.5 mg/kg.
